Assay results from the NIST ThermoML archive (doi:10.1016/j.jct.2018.10.015).

Assay: xn = mol fraction of the nth substance listed
Settings: 101.3 kPa, Liquid; for viscosity: Concentric cylinders viscometry; for mass density: Vibrating tube method

CCn1cc[n+](C)c1C.O=S(=O)([N-]S(=O)(=O)C(F)(F)F)C(F)(F)F + COC(=O)OC
Settings | mass density [kg/m3] | viscosity [mPa·s]
293.15 K, x1 = 0.099 | 1189 | 1.706
293.15 K, x1 = 0.1994 | 1269.4 | 3.137
293.15 K, x1 = 0.298 | 1325 | 5.492
293.15 K, x1 = 0.4006 | 1368.1 | 9.266
293.15 K, x1 = 0.5003 | 1400.9 | 14.65
293.15 K, x1 = 0.5738 | 1420.8 | 20.1
293.15 K, x1 = 0.6927 | 1447.3 | 31.98
293.15 K, x1 = 0.8138 | 1469.2 | 49.28
293.15 K, x1 = 0.8951 | 1481.5 | 64.02
293.15 K, x1 = 1 | 1495.8 | 89.88
298.15 K, x1 = 0.099 | 1183 | 1.581
298.15 K, x1 = 0.1994 | 1263.8 | 2.849
298.15 K, x1 = 0.298 | 1319.6 | 4.9
298.15 K, x1 = 0.4006 | 1362.9 | 8.114
298.15 K, x1 = 0.5003 | 1395.7 | 12.58
298.15 K, x1 = 0.5738 | 1415.7 | 17.03
298.15 K, x1 = 0.6927 | 1442.3 | 26.57
298.15 K, x1 = 0.8138 | 1464.3 | 40.16
298.15 K, x1 = 0.8951 | 1476.7 | 51.6
298.15 K, x1 = 1 | 1491 | 71.34
303.15 K, x1 = 0.099 | 1177 | 1.469
303.15 K, x1 = 0.1994 | 1258.1 | 2.6
303.15 K, x1 = 0.298 | 1314.2 | 4.402
303.15 K, x1 = 0.4006 | 1357.7 | 7.169
303.15 K, x1 = 0.5003 | 1390.6 | 10.91
303.15 K, x1 = 0.5738 | 1410.6 | 14.6
303.15 K, x1 = 0.6927 | 1437.4 | 22.36
303.15 K, x1 = 0.8138 | 1459.4 | 33.22
303.15 K, x1 = 0.8951 | 1471.8 | 42.25
303.15 K, x1 = 1 | 1486.3 | 57.64
308.15 K, x1 = 0.099 | 1171 | 1.368
308.15 K, x1 = 0.1994 | 1252.4 | 2.383
308.15 K, x1 = 0.298 | 1308.8 | 3.98
308.15 K, x1 = 0.4006 | 1352.5 | 6.384
308.15 K, x1 = 0.5003 | 1385.5 | 9.555
308.15 K, x1 = 0.5738 | 1405.6 | 12.64
308.15 K, x1 = 0.6927 | 1432.4 | 19.05
308.15 K, x1 = 0.8138 | 1454.5 | 27.85
308.15 K, x1 = 0.8951 | 1467 | 35.08
308.15 K, x1 = 1 | 1481.5 | 47.26
313.15 K, x1 = 0.099 | 1164.8 | 1.276
313.15 K, x1 = 0.1994 | 1246.8 | 2.192
313.15 K, x1 = 0.298 | 1303.4 | 3.619
313.15 K, x1 = 0.4006 | 1347.3 | 5.728
313.15 K, x1 = 0.5003 | 1380.4 | 8.44
313.15 K, x1 = 0.5738 | 1400.5 | 11.05
313.15 K, x1 = 0.6927 | 1427.5 | 16.38
313.15 K, x1 = 0.8138 | 1449.7 | 23.62
313.15 K, x1 = 0.8951 | 1462.2 | 29.48
313.15 K, x1 = 1 | 1476.7 | 39.24
318.15 K, x1 = 0.099 | 1158.7 | 1.193
318.15 K, x1 = 0.1994 | 1241.2 | 2.023
318.15 K, x1 = 0.298 | 1298 | 3.308
318.15 K, x1 = 0.4006 | 1342.1 | 5.173
318.15 K, x1 = 0.5003 | 1375.3 | 7.511
318.15 K, x1 = 0.5738 | 1395.5 | 9.74
318.15 K, x1 = 0.6927 | 1422.6 | 14.24
318.15 K, x1 = 0.8138 | 1444.8 | 20.25
318.15 K, x1 = 0.8951 | 1457.4 | 25.06
318.15 K, x1 = 1 | 1472 | 33
323.15 K, x1 = 0.099 | 1152.5 | 1.114
323.15 K, x1 = 0.1994 | 1235.5 | 1.87
323.15 K, x1 = 0.298 | 1292.7 | 3.037
323.15 K, x1 = 0.4006 | 1336.9 | 4.699
323.15 K, x1 = 0.5003 | 1370.2 | 6.73
323.15 K, x1 = 0.5738 | 1390.5 | 8.649
323.15 K, x1 = 0.6927 | 1417.6 | 12.48
323.15 K, x1 = 0.8138 | 1440 | 17.52
323.15 K, x1 = 0.8951 | 1452.6 | 21.53
323.15 K, x1 = 1 | 1467.2 | 28.05
328.15 K, x1 = 0.099 | 1146.3 | 1.042
328.15 K, x1 = 0.1994 | 1230 | 1.737
328.15 K, x1 = 0.298 | 1287.3 | 2.802
328.15 K, x1 = 0.4006 | 1331.7 | 4.286
328.15 K, x1 = 0.5003 | 1365.2 | 6.083
328.15 K, x1 = 0.5738 | 1385.5 | 7.757
328.15 K, x1 = 0.6927 | 1412.7 | 11.06
328.15 K, x1 = 0.8138 | 1435.1 | 15.34
328.15 K, x1 = 0.8951 | 1447.8 | 18.72
328.15 K, x1 = 1 | 1462.4 | 24.16
